Read-outs that look alike come from different tables or passages of the source.
Tests used:
EO771 = test: Inhibition of mammary carcinoma cell line EO771; format: cell-based, mouse (C57BL/6); settings: Mus musculus; Table 5; EO771, C57BL/6, Basal, HER2−
Protocol: 3-(4,5-Dimethylthiazol-2-yl)-2,5-diphenyltetrazolium Bromide (MTT) Cell Proliferation Assay. To cells grown in 96-well-tissue culture plate, 20 μl/well of MTT solution (5 mg/ml in PBS) was added. After 1-2 hours incubation at 37° C., the plate was centrifuged. Supernatant was discarded and 100 μl DMSO was added to dissolve water insoluble formazan, and the absorbance was read at 540 nm with a plate reader.

CYP3A4 [1] = target: T1, CYP3A4 (Homo sapiens, UniProt P08684); test: CYP3A4 Supersome mediated EET biosynthesis; format: biochemical; parameters: purchased Corning; host or cells: insect cells (microsomes)
T1 sequence (P08684 whole entry): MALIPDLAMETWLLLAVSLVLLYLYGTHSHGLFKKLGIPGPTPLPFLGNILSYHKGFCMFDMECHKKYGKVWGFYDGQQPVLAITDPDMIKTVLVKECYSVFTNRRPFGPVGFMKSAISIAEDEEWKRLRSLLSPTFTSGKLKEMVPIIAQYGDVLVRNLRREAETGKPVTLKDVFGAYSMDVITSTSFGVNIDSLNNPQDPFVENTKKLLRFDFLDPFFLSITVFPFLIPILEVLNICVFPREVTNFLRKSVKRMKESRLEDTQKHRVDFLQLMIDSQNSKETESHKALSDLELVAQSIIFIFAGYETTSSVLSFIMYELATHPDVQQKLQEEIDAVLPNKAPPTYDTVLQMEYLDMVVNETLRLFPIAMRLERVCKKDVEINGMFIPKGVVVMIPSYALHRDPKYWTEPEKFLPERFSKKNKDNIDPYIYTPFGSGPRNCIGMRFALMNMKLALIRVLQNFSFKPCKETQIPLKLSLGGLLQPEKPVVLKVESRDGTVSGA
Protocol: FIG. 1. Effects of HCB on CYP3A4 Supersome™ mediated EET biosynthesis. A 50 ul reaction in a 1.5 ml microcentrifuge tube contains the following components: arachidonic acid (60 μM), NDAPH (2 mM), DMSO or drug, CYP3A4 Supersome™ (1 μM) in potassium phosphate buffer (pH=7.4). The reaction was initiated by the addition of Supersome™ to the reaction mixture. After incubation at 37° C. for 30 minutes, 50 ul of acetonitrile spiked with 13C-EET internal standards was added and vortexed vigorously to terminate the reaction. Microcentrifuge tubes were centrifuged at 16,000×rpm for 10 min to precipitate proteins and other insoluble debris and 80 ul supernatant was transferred into HPLC vials and analyzed by an LC-MS as described previously (1). Results are expressed as mean±S.D. (n=3).
FIG. 2. Effects of DCB and HCB on CYP3A4 Supersome™ mediated EET biosynthesis. A 0.5 ml reaction in a 10 ml glass test tube contains the following components: arachidonic acid ([…]), NDAPH (2 mM), DMSO or drug solution (0.5 μl), CYP3A4 Supersome™ (80 nM) and 450.5 ul potassium phosphate buffer (pH=7.4). The reaction was initiated by the addition of Supersome™ to the rest. After incubation at 37° C. for 30 minutes, 0.5 ml of dichloromethane was added and vortexed vigorously to terminate the reaction. Organic phase and aqueous phase were separated by centrifugation at 3,000×rpm for 10 minutes. Two hundred microliters of the organic phase was withdrawn and evaporated to dryness. The residues were reconstituted with 20 ul methanol containing ^13C-EET internal standards and analyzed by an LC-MS as described previously (1). Results are expressed as mean±S.D. (n=3, * indicates a statistically significant difference from the control).
Recombinant Microsomal CYP-mediated EET Biosynthesis. CYP Supersomes™ (Corning, NY) (1 μM, final concentration) were incubated at 37° C. for 30 min in the presence of AA (120 μM) in 50 μl potassium phosphate buffer, (50 mM, pH 7.4), containing 1 mM EDTA and 1 mM NADPH. Reactions were terminated by addition of 50 μL of acetonitrile spiked with ^13C-EET internal standards followed by vigorous vortexing. After centrifugation at 16,000×rpm for 10 minutes to precipitate proteins and other insoluble debris and 80 μL supernatant was transferred into HPLC vials and analyzed by with an LC-ESI/MRM/MS method.
LC-ESI/MRM/MS Method for EET Measurement. EETs were measured by an LC-ESI/MRM/MS analytical method on a ThermoFisher Vantage triple quadrupole mass spectrometer (ThermoFisher, San Jose, CA) coupled with an UltiMate 3000 HPLC (ThermoFisher, San Jose, CA), using argon as the collision gas. Negative ion monitoring was performed at the following diagnostic product ions: 319 m/z→155 m/z for 8,9-EET; 319 m/z→179 m/z for 11,12-EET; 319 m/z→219 m/z for 14,15-EET; 339 m/z→163 m/z for 8,9-[^13C-20]EET; 339 m/z→233 m/z for 11,12-[^13C-20]EET; and 339 m/z→259 m/z for 14,15-[^13C-20]EET. Base-line resolution of EET regioisomers was achieved on a Phenomenex Luna C18 (2) reverse phase capillary column (250×0.5 mm, 5-μm particles) using the following mobile phase combinations: isocratic 5% B for 5 min, gradient 5-70% B for 5 min, hold at 70% for 30 min and then 95% for 10 min; A: 0.01% acetic acid in water, B: 0.01% acetic acid in acetonitrile; 10 μl/min flow rate. A standard curve was obtained by linear regression of the peak area ratio of authentic EET regioisomers against internal standards. The amount of EETs in samples was calculated according to the standard curve.

mm001 = test: Oxygen consumption rate (OCR), mm001; format: cell-based, mouse (C57BL/6)
Protocol: Measurement of oxygen consumption rate (OCR). Cells were maintained in growth medium consisting of 10% FBS at 37° C. with 5% CO2 and seeded at 25,000 cells per well in a 96-well XF96 cell culture microplates (Agilent, Santa Clara, CA). An 96 well XF sensor cartridge was hydrated and equilibrated with 200 ul calibrant in each well at 37° C. without CO2 overnight. Growth media was replaced with 150 μL DMEM based assay media (a non-buffered medium including 2 mM L-glutamine but no sodium bicarbonate (buffering agent), glucose, or sodium pyruvate, Agilent, Santa Clara, CA) the next day and cells were incubated CO2 free for 1 hour before the measurement of OCR by a Seahorse XFe Extracellular Flux Analyzer (Agilent, Santa Clara, CA), which measures uptake and excretion of metabolic end products in real time. After baseline measurements, 20 μl assay medium containing control vehicle or drugs were injected into corresponding wells. OCRs were measured periodically and can be reported in pmoles/minute or normalized against baseline measurements before treatment.

CYP3A4 [2] = target: T1, CYP3A4; test: Midazolam hydroxylation by CYP3A4 in Nanodiscs; format: biochemical
Protocol: Titration of ˜6 uM CYP3A4 in POPC Nanodiscs was done using 16 mM stock solution obtained by 6-fold dilution of the original 100 mM DMSO solution in methanol. Aliquots of 0.1-0.2 μL were added to 120 μL solution of CYP3A4-ND in semi-micro cell (10 mm pathlength). Spectra with background corrected for scattering are shown in FIG. 17, and titration data points in FIG. 18.
These concentrations were selected based on IC50 for arachidonic acid metabolism mentioned in the first e-mail (low HCB concentration) and on our titration results. We used seven MDZ concentrations and measured both 1 OH and 4 OH hydroxy-MDZ products using HPLC with absorbance detection at 240 nm. Results are shown below in FIG. 19.

CCCCCCNC(=N)NC(=N)NCc1ccccc1 [HBB, N1-hexyl-N5-benzyl-biguanide]
IC50 (EO771): 21.7 µM

CCCCCCNC(=N)NC(=N)NCC12C3C4C5C3C1C5C42 (stereo not drawn) [HCB, Hexyl Cubanomethyl Biguanide]
IC50 (CYP3A4 [1]; (±)8,9-EET, Example B text, read-out: IC50, CYP3A4 biosynthesis of (±)8,9-EET): 28 µM | IC50 (CYP3A4 [1]; (±)11,12-EET, Example B text, read-out: IC50, CYP3A4 biosynthesis of (±)11,12-EET): 56 µM | IC50 (CYP3A4 [1]; (±)14,15-EET, Example B text, read-out: IC50, CYP3A4-mediated biosynthesis of (±)14,15-EET): 3.8 µM | Ki (CYP3A4 [1]; (±)-14,15-EET, read-out: Ki, inhibition of biosynthesis of (±)-14,15-EET): 4.7 µM | IC50 (CYP3A4 [1]; FIG. 1, (±)8,9-EET, curve fitting, read-out: IC50 for (±)8,9-EET biosynthesis): 64.8 ± 6.5 µM | IC50 (CYP3A4 [1]; FIG. 1, (±)11,12-EET, curve fitting, read-out: IC50 for (±)11,12-EET biosynthesis): 26.5 ± 1.9 µM | IC50 (CYP3A4 [1]; FIG. 1, (±)14,15-EET, arachidonic acid 60 μM, CYP3A4 Supersome 1 μM, 30 min, curve fitting, read-out: IC50 for (±)14,15-EET biosynthesis): 4.7 ± 0.2 µM | fold more potent than HBB for inhibiting biosynthesis of (±)14,15-EET (CYP3A4 [1]; HCB vs HBB, CYP3A4): ~2.5 fold | OCR Inhibition [HCB] (uM) v vs. control (P < 0.05) (mm001): 10 µM | inhibition of MDZ hydroxylation (CYP3A4 [2]; 5.9 uM HCB, CYP3A4 Nanodiscs): Significant inhibition | effect on the 1 OH/4 OH ratio of MDZ hydroxylation (CYP3A4 [2]; 64 uM HCB): clear and reproducible effect
